Data: PMC9618103, “Exploratory toxicology studies of 2,3-substituted imidazo[1,2-a]pyridines with antiparasitic and anti-inflammatory properties” (Toxicology Research, 2022)

Assays:
Wistar rats [1] = assay: Subacute toxicity: serum and urine glucose, urinary protein excretion; format: in vivo; conditions: for Filtered Load of Glucose / Fractional Excretion of Glucose / Serum Glucose / Urinary Glucose Excretion / Urinary Protein Excretion: rats, p.o., 14 days at 10% of LD50 (CCl4, APAP: once daily, 3 days), mean ± SEM, n = 6
Wistar rats [2] = assay: Subacute toxicity: water and electrolyte balance (osmolality, sodium, potassium, urinary flow); format: in vivo; conditions: for osmolar clearance, change in words / freewater clearance, change in words: compared to the control group; for freewater clearance, change in words: significant by PLS VIP and ANOVA; for Filtered Load of Potassium / Filtered Load of Sodium / Fractional Excretion of Potassium / Fractional Excretion of Sodium / Serum Osmolality / Serum Potassium / Serum Sodium / U/S Osm ratio / Urinary Flow Rate / Urinary Potassium Excretion / Urinary Sodium Excretion: rats, p.o., 14 days at 10% of LD50 (CCl4, APAP: once daily, 3 days), mean ± SEM, n = 6
NIH mice = assay: Acute oral toxicity, median lethal dose (LD50); format: in vivo; conditions: for Category (GHS acute oral toxicity hazard category) / Hazard statement (GHS): based on oral LD50, according to GHS [39]; for Oral LD50: female NIH mice, single oral dose, 14 days observation
Procedure: All treatments were administrated orally (p.o.) according to the scheme mentioned below.
Acute toxicity tests were performed in order to measure the median lethal dose (LD50). After acclimatization, mice were randomly allocated to ten groups (n = 4), including the control group (e.g. water, Tween 80, or PO) and the experimental groups, each with a single dose of one of the IMPYs at 4 levels of dose (0.5, 1.0, 2.0, and 4.0 g/kg b.w.).
Animals were food deprived overnight prior to administration of the chemical compounds or vehicles, and food was returned 4 h after dosing. Animals had access to water ad libitum throughout the study.[27]^,[28]

Wistar rats [3] = assay: Hepatic and renal lipid peroxidation (lipid-soluble fluorescence); format: in vivo; conditions: for Renal Lipoperoxidation: kidney; for Renal Lipoperoxidation / Hepatic Lipoperoxidation: rats, p.o., 14 days at 10% of LD50 (CCl4, APAP: once daily, 3 days), mean ± SEM, n = 6; for Hepatic Lipoperoxidation: liver
[4] = test system: renal secretory pathway of organic anions; assay: Active tubular secretion of organic acids (PAH uptake in kidney cortex slices); format: in vivo, rats; conditions: for PAH t/m ratio: kidney cortex slices, PAH 1 mM, 1 h, 25 °C, rats, p.o., 14 days at 10% of LD50 (CCl4, APAP: once daily, 3 days), mean ± SEM, n = 6
Wistar rats [5] = assay: Hepatic and renal reactive oxygen species (DCF formation); format: in vivo; conditions: rats, p.o., 14 days at 10% of LD50 (CCl4, APAP: once daily, 3 days), mean ± SEM, n = 6; for Renal ROS: kidney; for Hepatic ROS: liver
Wistar rats [6] = assay: Subacute toxicity: glomerular filtration rate (creatinine clearance) and serum creatinine; format: in vivo; conditions: for Glomerular Filtration Rate / Serum Creatinine: rats, p.o., 14 days at 10% of LD50 (CCl4, APAP: once daily, 3 days), mean ± SEM, n = 6
Wistar rats [7] = assay: Subacute toxicity: serum alanine aminotransferase and alkaline phosphatase activity; format: in vivo; conditions: for Alanine Aminotransferase / Alkaline Phosphatase: serum, rats, p.o., 14 days at 10% of LD50 (CCl4, APAP: once daily, 3 days), mean ± SEM, n = 6
[8] = in comparison with the control group

Structure (SMILES) | Filtered Load of Glucose (Wistar rats [1]) [mg/min] | Fractional Excretion of Glucose (Wistar rats [1]) [%] | Serum Glucose (Wistar rats [1]) [mg/dL] | Urinary Glucose Excretion (Wistar rats [1]) [ng/min] | Urinary Protein Excretion (Wistar rats [1]) [µg/min] | Filtered Load of Potassium (Wistar rats [2]) [µEq/min] | Filtered Load of Sodium (Wistar rats [2]) [µEq/min] | Fractional Excretion of Potassium (Wistar rats [2]) [%] | Fractional Excretion of Sodium (Wistar rats [2]) [%] | Serum Osmolality (Wistar rats [2]) [mOsm/kg] | Serum Potassium (Wistar rats [2]) [mEq/L] | Serum Sodium (Wistar rats [2]) [mEq/L] | U/S Osm ratio (Wistar rats [2]) | Urinary Flow Rate (Wistar rats [2]) [µL/min] | Urinary Potassium Excretion (Wistar rats [2]) [µEq/min] | Urinary Sodium Excretion (Wistar rats [2]) [µEq/min] | Category (GHS acute oral toxicity hazard category) (NIH mice) | Hazard statement (GHS) (NIH mice) | Oral LD50 (NIH mice) [g/kg b.w.] | Renal Lipoperoxidation (Wistar rats [3]) [URF/mg protein] | further results
N#Cc1nc2ccccn2c1[N+](=O)[O-] [Compound 2b, 3-nitroimidazo[1,2-a]pyridine-2-carbonitrile] | 2.29 ± 0.33 | 0.01 ± 1.8E-3 | 126.47 ± 5.03 | 109.06 ± 24.61 | 0.86 ± 0.20 | 10.21 ± 1.12 | 267.24 ± 51.35 | 13.47 ± 1.95 | 0.88 ± 0.29 | 288.93 ± 1.51 | 5.79 ± 0.31 | 141.65 ± 15.47 | 3.44 ± 0.10 | 8.29 ± 1.67 | 1.38 ± 0.21 | 1.87 ± 0.39 | 4 | Harmful if swallowed | 1.606 | 0.47 ± 0.03 | FLG (filtered load of glucose), change in words (Wistar rats [1]; versus 2a): increased; urinary sodium excretion (USE), change in words (Wistar rats [2]; 2b versus control, tween 80, and 2a, 4 versus control): higher; potassium clearance, change in words (Wistar rats [2]; compared to the control (2b also versus 2a)): increased; urinary potassium excretion (UPE), change in words (Wistar rats [2]; compared to the control and 2a): increased; osmolar clearance, change in words (Wistar rats [2]): greater; freewater clearance, change in words (Wistar rats [2]): lower; UFR (urinary flow rate), change in words (Wistar rats [2]; [8]): increased; FES (fractional excretion of sodium), change in words (Wistar rats [2]; in comparison with tween 80): increased; sodium clearance, change in words (Wistar rats [2]; versus control, tween 80, and 2a): higher; renal LPO, change in words (Wistar rats [3]; compared to the control group (CCl4 also versus PO)): greater; Hepatic Lipoperoxidation (Wistar rats [3]): 0.64 ± 0.10 URF/mg protein; PAH t/m ratio [4]: 2.11 ± 0.20; Renal ROS (Wistar rats [5]): 225.78 ± 56.22 nM de DCF/mg protein/h; Hepatic ROS (Wistar rats [5]): 208.65 ± 30.24 nM de DCF/mg protein/h; Glomerular Filtration Rate (Wistar rats [6]): 1.81 ± 0.26 mL/min; Serum Creatinine (Wistar rats [6]): 0.56 ± 0.08 mg/dL; serum ALP, change in words (Wistar rats [7]; compared to the control (CCl4 also versus PO)): greater; Alanine Aminotransferase (Wistar rats [7]): 44.90 ± 2.46 U/L; Alkaline Phosphatase (Wistar rats [7]): 192.21 ± 38.07 U/L
O=C(O)c1cn2ccccc2n1 [Compound 3a, imidazo[1,2-a]pyridine-2-carboxylic acid] | 0.22 ± 0.03 | 0.05 ± 0.01 | 80.56 ± 2.31 | 92.91 ± 12.35 | 0.69 ± 0.14 | 1.98 ± 0.44 | 40.07 ± 7.62 | 27.89 ± 6.73 | 0.53 ± 0.16 | 304.73 ± 1.82 | 6.83 ± 0.54 | 148.12 ± 3.02 | 3.18 ± 0.61 | 2.20 ± 0.50 | 0.50 ± 0.12 | 0.17 ± 0.05 | 5 | May be harmful if swallowed | > 2.000 | 0.29 ± 0.03 | FEG (fractional excretion of glucose), change in words (Wistar rats [1]; compared to control values): increased; FLG (filtered load of glucose), change in words (Wistar rats [1]; compared to control values): reduced; osmolar clearance, change in words (Wistar rats [2]): lower; freewater clearance, change in words (Wistar rats [2]): greater; FLS (filtered load of sodium), change in words (Wistar rats [2]; [8]): decreased; Hepatic Lipoperoxidation (Wistar rats [3]): 0.79 ± 0.03 URF/mg protein; PAH t/m ratio [4]: 2.25 ± 0.10; Renal ROS (Wistar rats [5]): 159.65 ± 14.96 nM de DCF/mg protein/h; Hepatic ROS (Wistar rats [5]): 349.63 ± 18.87 nM de DCF/mg protein/h; GFR, change in words (Wistar rats [6]; in comparison to the control group): lower; Glomerular Filtration Rate (Wistar rats [6]): 0.28 ± 0.04 mL/min; Serum Creatinine (Wistar rats [6]): 1.05 ± 0.05 mg/dL; Alanine Aminotransferase (Wistar rats [7]): 25.62 ± 1.27 U/L; Alkaline Phosphatase (Wistar rats [7]): 93.76 ± 13.08 U/L
O=C(O)c1nc2ccccn2c1[N+](=O)[O-] [Compound 3b, 3-nitroimidazo[1,2-a]pyridine-2-carboxylic acid] | 0.74 ± 0.09 | 0.04 ± 3.7E-3 | 121.37 ± 8.03 | 262.45 ± 19.41 | 1.18 ± 0.23 | 4.15 ± 0.53 | 90.75 ± 12.03 | 11.63 ± 2.44 | 0.38 ± 0.05 | 293.74 ± 2.06 | 6.69 ± 0.40 | 144.61 ± 3.41 | 3.21 ± 0.39 | 3.75 ± 0.75 | 0.43 ± 0.07 | 0.34 ± 0.06 | 5 | May be harmful if swallowed | > 2.000 | 0.44 ± 0.09 | Hepatic Lipoperoxidation (Wistar rats [3]): 0.80 ± 0.03 URF/mg protein; PAH t/m ratio [4]: 1.92 ± 0.23; PAH t/m ratio, change in words ([4]; versus control (2a also versus Tween 80 and 2b)): decreased; Renal ROS (Wistar rats [5]): 184.33 ± 42.31 nM de DCF/mg protein/h; Hepatic ROS (Wistar rats [5]): 290.96 ± 40.60 nM de DCF/mg protein/h; Glomerular Filtration Rate (Wistar rats [6]): 0.63 ± 0.08 mL/min; Serum Creatinine (Wistar rats [6]): 0.57 ± 0.12 mg/dL; Alanine Aminotransferase (Wistar rats [7]): 32.76 ± 5.37 U/L; Alkaline Phosphatase (Wistar rats [7]): 56.63 ± 6.67 U/L
